In article PMC6162288, “On-chip spatiotemporal electrophysiological analysis of human stem cell derived cardiomyocytes enables quantitative assessment of proarrhythmia in drug development” (Scientific Reports, 2018):
Where “and” joins values, the source holds several entries; their conditions need not be identical. Equal values may be shown once. Read-outs that look alike come from different tables or passages of the source.

Legend:
[1] = cited from earlier work; for EPTC: effective therapeutic plasma concentration; for Unbound: unbound therapeutic plasma concentration
hERG = details: cited from earlier work
lined-up hESC-CMs = assay: MEA field potential recording of lined-up hESC-CMs (cFPD, CT, their STVs, ISI, beat rate, arrest); type: cell-based, human; details: for BR (beat rate) / Cond. Time (CT) / ISI (inter-spike interval) / STVCT / STVcFPD / cFPD: change vs Ctrl.; for FPD (repolarization index): at 10 times higher than therapeutic plasma concentrations; for CT: at equivalent concentrations of Nav1.5 IC50; for Arrest: arrest cases/chips
Method: Human embryonic stem cell-derived cardiomyocytes clusters (hES-CMCs) were shipped from Cellectis (hES-CMCTM002, hES cell line SA002, Gothenburg, Sweden)[42],[43], and maintained in Dulbecco’s modified Eagle’s medium (DMEM) supplemented 20% heat-inactivated fetal bovaine serum, 1 mM GlutaMax, 100 U/mL penicillin, 0.1 mg/mL streptomycin, 1% nonessential amino acids and 0.1 mM β-mercaptoethanol (Invitrogen, Carsbad, CA, USA). Dispersed cardiomyocytes were isolated from hES-CMCs by a modification of the methods of Norström et al.[44]–[48]. […] The supernatant was gently aspirated with pipette, and a 5-hold volume of DMEM was added as stop solution. Remaining clusters were treats ed with the above process with several times. The supernatants were collected and centrifuged with 200 × g for 2–3 min at 4 °C. The resulting supernatant including dispersed cells was seeded into agarose microchambers on an MEA chip (MED-P530A; AlphaMED scientific. Co. Ltd., Japan)[40].
The MEA chip surface was prepared as follows. First, the chip surface was coated with collagen type I-C (Nitta Gelatin, Japan). After drying, the chip surface was coated with a 0.1% agarose gel. […] At >30 min before the start of experiment, the medium was changed to 2 mL pre-warmed fresh maintenance medium per chip.
Extracellular potential recordings of the lined-up hESC-CMs were performed using the MEA system at a sampling rate of 10 kHz with a low path filter of 2 kHz and high path filter of 1 Hz, and signals were amplified by 100–50,000 using the amplifier. The MEA chip with lined-up hESC-CMs was set in the FP measurement device and placed in a humidified cell culture incubator at 37 °C, 5% CO2. The signals were analyzed by Igor Pro 6.0 (WaveMetrics, Inc., USA) and FlexPro 7.0 (Weisang GmbH, Germany).
We adopted the same drug administration protocol as we examined previously[40] (Fig. 2B). Briefly, the MEA chips of lined-up cells for experiments were selected from the chips having 0.6–1.1 Hz beating frequency and ventricle-like waveforms of FP recordings (see Fig. 1B,D). The MEA chip was placed in the holder of the FP measurement device, and equilibrated for 5 min, and then the control FP waveforms were recorded for 10 min. Subsequently, the drug was applied to the medium at 1% dilution in serially increasing additions, and the FP waveforms were recorded for 10 min at each concentration. Finally, the drug-containing medium was replaced with fresh medium after washing three times. The last 50 beats extracted from 10 min recorded FP waveform data was used for beat rate, FPD (the time from first depolarization peak to broad repolarization peak) and CT (the time difference of the first peaks between separately placed electrodes in lined-upped cell-network) measurement at each concentration (Fig. 2C).
It was normalized (cFPD) to the beating rate of cardiomyocytes using Bazett’s correction formula based on the comparison of the slope of a plot of inter-spike interval and FPD, or corrected FPD by Bazett’s or Fridericia’s formulae (Fig. 3). The short-term variability (STV) of cFPD and CT, which was defined as the mean distance of points perpendicular to the line of identity in the Poincaré plot, was calculated ( STV=∑|D(n+1)−Dn|/(n×2) , where Dn represents the FPD and CT of n-th beating). STVs were last 50 beat data from 5 min extraction of cFPD and CT. To assess the arrhythmogenicity risk of test drugs, the mean values of cFPD, STVcFPD, CT and STVCT of each drug were plotted.

Nav1.5 = details: cited from earlier work
Cav1.2 = details: cited from earlier work
[2] = Conc. 10^3 nM (1 μM), listed as astemizole
[3] = Conc. 10^5 nM (100 μM), listed as terfenadine

## COc1ccc(CCN2CCC(Nc3nc4ccccc4n3Cc3ccc(F)cc3)CC2)cc1 [Astemizole, astemizole]
[1]
  EPTC: 5.5 to 7.9 nM
  Unbound: 0.2 to 0.26 nM
hERG
  IC50: […]
lined-up hESC-CMs; Conc. 1 nM
  BR (beat rate): 6.0%
  Cond. Time (CT): −0.99%
  ISI (inter-spike interval): −5.4%
  STVCT: 46%
  STVcFPD: −14%
  cFPD: 0.24%
lined-up hESC-CMs; Conc. 10 nM
  BR (beat rate): 6.5%
  Cond. Time (CT): −3.0%
  ISI (inter-spike interval): −5.9%
  STVCT: 13%
  STVcFPD: 3.5%
  cFPD: 0.69%
lined-up hESC-CMs; Conc. 10^2 nM (0.1 μM)
  Cond. Time (CT): −1.4%
  STVCT: 483%
  STVcFPD: 14%
  cFPD: 4.4%
lined-up hESC-CMs; Conc. 10^2 nM (0.1 μM), listed as astemizole
  STVCT: 483%
lined-up hESC-CMs; Conc. 10^2 nM
  BR (beat rate): 6.1%
  ISI (inter-spike interval): −5.3%
lined-up hESC-CMs; Conc. 10^3 nM (1 μM)
  Cond. Time (CT): 126%
  STVCT: 196%
  STVcFPD: 122%
  cFPD: 43.7% and 44%
lined-up hESC-CMs; [2]
  STVCT: 196%
  STVcFPD: 122%
lined-up hESC-CMs; Conc. 10^3 nM
  BR (beat rate): −2.5%
  ISI (inter-spike interval): 3.1%
lined-up hESC-CMs; Conc. 10^−1 nM
  BR (beat rate): 2.0%
  ISI (inter-spike interval): −1.9%
  STVCT: 46%
  STVcFPD: −2.8%
  cFPD: −0.71%
lined-up hESC-CMs; Conc. 10^−1 nM, 150 μm inter-electrode distance
  Cond. Time (CT): −3.3%
lined-up hESC-CMs
  CT: increased
Nav1.5; read-out: IC50 Nav1.5
  IC50: 2200 nM
Cav1.2; read-out: IC50 Cav1.2
  IC50: 700 nM

## O=C(NCC1CCCCN1)c1cc(OCC(F)(F)F)ccc1OCC(F)(F)F (centres unmarked) [Flecainide, flecainide]
hERG; read-out: IC50 hERG
  IC50: 1800 nM
lined-up hESC-CMs; 10–100 μM
  STVcFPD increase: about 50%
lined-up hESC-CMs; Conc. 10 nM
  BR (beat rate): 2.6%
  Cond. Time (CT): −3.2%
  ISI (inter-spike interval): −2.5%
  STVCT: 7.0%
  cFPD: 0.13%
lined-up hESC-CMs; Conc. 10^2 nM (0.1 μM)
  Cond. Time (CT): 12%
  STVCT: 61%
  STVcFPD: −16%
  cFPD: 3.4%
lined-up hESC-CMs; Conc. 10^2 nM
  BR (beat rate): 3.9%
  ISI (inter-spike interval): −3.7%
lined-up hESC-CMs; Conc. 10^3 nM (1 μM)
  Cond. Time (CT): −0.65%
  STVCT: 36%
  STVcFPD: 0.32%
  cFPD: 1.8%
lined-up hESC-CMs; Conc. 10^3 nM
  BR (beat rate): 4.5%
  ISI (inter-spike interval): −4.2%
lined-up hESC-CMs; Conc. 10^4 nM (10 μM)
  Cond. Time (CT): 64% and 65%
  STVCT: 288%
  STVcFPD: 41%
  cFPD: 0.11%
lined-up hESC-CMs; Conc. 10^4 nM (10 μM), listed as flecainide
  STVCT: 287%
lined-up hESC-CMs; Conc. 10^4 nM
  BR (beat rate): 5.1%
  ISI (inter-spike interval): −4.7%
lined-up hESC-CMs; Conc. 10^5 nM (100 μM)
  Cond. Time (CT): −3.6%
  STVCT: 263%
  STVcFPD: 54%
  cFPD: −14%
lined-up hESC-CMs; Conc. 10^5 nM
  Arrest: 1/4
  BR (beat rate): 5.8%
  ISI (inter-spike interval): −5.1%
lined-up hESC-CMs
  CT: increased
lined-up hESC-CMs; up to 100 μM
  FPD: did not show FPD prolongation
Nav1.5; read-out: IC50 Nav1.5
  IC50: 34000 nM
Nav1.5; ref Table 1, read-out: Nav1.5 IC50
  IC50: ~34000 nM
Cav1.2; read-out: Cav1.2 IC50, ref Table 1
  IC50: 56000 nM
Cav1.2; read-out: IC50 Cav1.2
  IC50: 55900 nM

## CC(C)(C)c1ccc(C(O)CCCN2CCC(C(O)(c3ccccc3)c3ccccc3)CC2)cc1 (centres unmarked) [Terfenadine, terfenadine]
[1]
  EPTC: 3.3 to 9.7 nM
  Unbound: 0.1 to 0.29 nM
lined-up hESC-CMs; 3 μM, n = 4, P < 0.05
  CT increase: 189%
lined-up hESC-CMs; Conc. 10 nM
  BR (beat rate): 4.6%
  Cond. Time (CT): 32%
  STVCT: 37%
  STVcFPD: 76%
  cFPD: 2.3%
lined-up hESC-CMs; Conc. 10^2 nM (0.1 μM)
  STVCT: 16%
  STVcFPD: −3.4%
  cFPD: 2.8%
lined-up hESC-CMs; Conc. 10^2 nM
  BR (beat rate): […]
  ISI (inter-spike interval): […]
lined-up hESC-CMs; Conc. 10^3 nM (1 μM)
  Cond. Time (CT): 101%
  STVCT: 228%
  STVcFPD: 37%
  cFPD: 0.25%
lined-up hESC-CMs; Conc. 10^3 nM (1 μM), listed as terfenadine
  STVCT: 228%
lined-up hESC-CMs; Conc. 10^3 nM
  BR (beat rate): −3.0%
  ISI (inter-spike interval): 3.1%
lined-up hESC-CMs; Conc. 10^4 nM (10 μM)
  Cond. Time (CT): 189%
  STVCT: 511%
  STVcFPD: 65%
  cFPD: −26%
lined-up hESC-CMs; Conc. 10^4 nM (10 μM), listed as terfenadine
  cFPD: −26%
lined-up hESC-CMs; Conc. 10^4 nM
  Arrest: 3/7
  BR (beat rate): −38%
  ISI (inter-spike interval): 122%
lined-up hESC-CMs; Conc. 10^5 nM (100 μM)
  Cond. Time (CT): 198%
  STVCT: 143%
  STVcFPD: 243%
lined-up hESC-CMs; [3]
  STVcFPD: 243%
  cFPD: −78%
lined-up hESC-CMs; Conc. 10^5 nM
  BR (beat rate): −88%
  ISI (inter-spike interval): 744%
lined-up hESC-CMs
  CT: increased
lined-up hESC-CMs; concentrations more than 10 μM
  FPD: FPD shortening
Cav1.2; read-out: IC50 Cav1.2
  IC50: […]
